In brackets after ≈: the same amount, converted by molar mass. Like-named read-outs stand apart in the source and are kept apart here.
How the values were obtained:
Krafft temperature (TK) = type: physicochemical
Method: CHNS elemental analysis was carried out by a Vario EL cube (Elementar, Germany) calibrated on acetanilide. Electrospray ionization mass spectroscopy (ESI-MS) (micrOTOF-Q instrument; Bruker Daltonics, Germany) allowed for the MS spectra to be obtained. The ESI-MS instrument was operated in the positive ion mode and calibrated with the Tunemix^TM mixture (Bruker Daltonics, Germany). The mass accuracy was better than 5 ppm. The obtained mass spectra were analyzed using DataAnalysis 3.4 software (Bruker Daltonics, Germany). ^1H NMR spectra were recorded on a Bruker AMX-500 spectrometer, using CDCl3 as a solvent. ^1H chemical shifts (in ppm) were calibrated to TMS as an internal reference. Melting points were determined using a Boetius melting point apparatus, while Krafft temperatures were determined according to the directions given in [47]. CMC is the minimum concentration above which micelles are formed in aqueous liquid. To obtain the CMC values, we used McGowan’s model. […] Molecular characteristic volumes (Vx) are found by the addition of the atomic characteristic volumes and the subtraction for the same factory (6.56 × 10^−6 m^3 mol^−1) for every covalent bond.

C. glabrata ATCC 90030 [1] = assay: MIC90/MFC, EUCAST broth microdilution; type: cell-based, Candida glabrata; conditions: ATCC 90030
[2] = test system: C. glabrata 2586 clinical strain; assay: MIC90/MFC, EUCAST broth microdilution; type: cell-based, Candida glabrata
[3] = test system: C. glabrata 2853 clinical strain; assay: MIC90/MFC, EUCAST broth microdilution; type: cell-based, Candida glabrata
[4] = test system: C. glabrata strains (ATCC 90030, 2586, 2853); assay: MIC, statements for all tested strains together; type: cell-based, Candida glabrata; conditions: all the tested C. glabrata strains, AAB alone
C. glabrata 2586 biofilm = assay: Biofilm eradication on polystyrene, fluorescence microscopy (Syto9/PI); type: cell-based, Candida glabrata; conditions: Nakaseomyces glabratus, 2586BIOFILM, 72 h, read-out: Biofilm Viability [%] 2586 Live; for viability at 1 µM: AAB alone 1 μM; for viability at 2 µM: AAB alone 2 μM; for viability at 3 µM: AAB alone 3 μM
Method: (§1) C. glabrata biofilm eradication on polystyrene surfaces was assessed according to the following procedure: 1 mL of C. glabrata culture, 10^6 CFU/mL in RMPI 1640 MOPS-buffered medium, was pipetted into the wells of a 48-well adherent plate. Cultures were incubated at 37 °C for 72 h with shaking (400 RPM). […] Non-treated cells were used as the control. This experiment was carried out in triplicate. The analysis of the biofilm eradication of C. glabrata strains on polystyrene surfaces was performed using fluorescence microscopy (FM). For further information, see Section 4.12. below.
(§2) The 72 h biofilm of C. glabrata strains on polystyrene surfaces was stained on 48-well adherent plates with 1 µL of propidium iodide (Ex λ = 543 nm/Em λ = 617 nm) and 1 µL of SYTO9 (Ex λ = 488 nm/Em λ = 503 nm) for 30 min using a LIVE/DEAD BacLight Bacterial Viability Kit (Thermo Fisher Scientific, Waltham, MA USA). Imaging was performed using a fluorescence microscope (FM) BX51 (Olympus, Tokyo, Japan) equipped with an Orca Flash 40 camera (Hamamatsu, Hamamatsu City, Japan) and 10× objective Plan APO. Scale bar = 100 µm. Detailed computer qualitative and quantitative analyses of the obtained pictures were performed by estimating the coverage area on the polystyrene plate (the percentage of the area occupied by the fungal biofilm). The cell viability analysis was performed by calculating the fluorescence intensity of the dyes (Syto9/PI) used. The acquired images were processed and analyzed using Fiji/ImageJ software ver. 1.53c (NIH, Bethesda, MD, USA). First, maximum intensity projections (MIPs) were obtained from stacks of images. The areas of the binary images were transferred into the original live and dead channel MIP images. The mean fluorescence intensities of all detected objects per field of view were calculated using ImageJ’s Analyze Threshold function (Software: ImageJ version 1.53 from Softonic).

C. glabrata 2853 biofilm = assay: as above; type: cell-based, Candida glabrata; conditions: Nakaseomyces glabratus, 2853BIOFILM, 72 h, read-out: Biofilm Viability [%] 2853 Live; for viability at 1 µM: AAB alone 1 μM; for viability at 2 µM: AAB alone 2 μM; for viability at 3 µM: AAB alone 3 μM
Method: as §1, §2

[5] = test system: C. glabrata ATCC 90030 biofilm; assay: as above; type: cell-based, Candida glabrata; conditions: Nakaseomyces glabratus, ATCC90030, 72 h, read-out: Biofilm Viability [%] 90030 Live; for viability at 1 µM: AAB alone 1 μM; for viability at 2 µM: AAB alone 2 μM; for viability at 3 µM: AAB alone 3 μM
Method: as §1, §2

[6] = test system: Balb/3T3 mouse embryonic fibroblasts; assay: Cell proliferation assay (MTT test); type: cell-based; conditions: 24 h
Method: Balb/3T3 (ATCC CCL-163) mouse embryonic fibroblasts were cultured in DMEM medium supplemented with 10% fetal bovine serum, 1 mM L-glutamine, and a 1% penicillin/streptomycin solution and were used for our cytotoxicity studies. The cells were cultured at 37 °C and 5% CO2 until the cell density of 10^6 mL^−1 was obtained. Such cells were then seeded in 24-well tissue microplates (2 × 10^4 cells per well) and allowed to adhere overnight under the abovementioned conditions. Cytotoxicity tests were carried out on the cells prepared in this way.
The newly synthesized AABs (C9, C11, C13, and C15) were selected based on previous studies. They were analyzed at the concentrations of 0.25, 0.5, 1, 2, and 3 µM. […] The BALB-3T3 cells were treated with the prepared mixtures, dissolved in a complete cell culture medium, and then incubated for 24 h under the abovementioned conditions. Three independent replicates were performed for each combination of compounds.
The cytotoxic effect of the tested compounds in combination with β-AE was evaluated by measuring mitochondrial dehydrogenase activity using the MTT assay. After a 24 h incubation period, the medium supplemented with the 1mM MTT solution was added to each well. The cultures were continued for another 4 h under the conditions enriched with 5% CO2. After this time, the supernatant was collected, and MTT formazan was extracted from the cells using DMSO. The reaction was then stopped with Sörensen buffer (0.1 mol/L glycine; 0.1 mol/L NaCl; and pH 10.5). The percentage of cytotoxicity was calculated by comparing the absorbance values (λ = 560 nm) of the test sample to the control sample, which was untreated fibroblast cells. In the test performed, the negative control (C−) (sample not treated; PBS added) and positive control (C+) were fibroblast cells treated with 1% SDS [60].

C. glabrata ATCC 90030 [7] = assay: FICI checkerboard, β-aescin with antifungal drugs; type: cell-based, Candida glabrata
C. glabrata 2586 [8] = assay: FICI checkerboard, β-aescin with antifungal drugs; type: cell-based, Candida glabrata; conditions: combination with β-aescin
C. glabrata 2853 [9] = assay: FICI checkerboard, β-aescin with antifungal drugs; type: cell-based, Candida glabrata
C. glabrata ATCC 90030 [10] = assay: Interaction of AABs (3 µM) with antifungal agents, modified checkerboard; type: cell-based, Candida glabrata
C. glabrata 2586 [11] = assay: as above; type: cell-based, Candida glabrata
C. glabrata 2853 [12] = assay: as above; type: cell-based, Candida glabrata; conditions: for Multiplicity factor (MF) with C9: C9 3 µM
[13] = test system: biofilms of C. glabrata DSM 1226 and two clinical isolates; parameters: method as in PMID 37508306; conditions: combination with β-AE; biofilms of three strains; ref [12]; cited from earlier work
[14] = Nakaseomyces glabratus, ATCC90030, read-out: MIC converted to
[15] = Nakaseomyces glabratus, read-out: MFC
[16] = Nakaseomyces glabratus, read-out: MIC90
[17] = C9 at constant 3 µM, dilutions in µg/mL
[18] = C11 at constant 3 µM, dilutions in µg/mL
[19] = C13 at constant 3 µM, dilutions in µg/mL
[20] = C15 at constant 3 µM, dilutions in µg/mL

SMILES: CCCCCCCCCCCC(=O)N(C)CCC[N+](C)(C)CC(=O)[O-] [C11]
- TK (Krafft temperature) (Krafft temperature (TK)): ~5 °C
- MIC90 (C. glabrata ATCC 90030 [1]; AAB alone): >3 µM/mL
- MIC90 ([2]; AAB alone): >3 µM/mL
- MIC90 ([3]; AAB alone): >3 µM/mL
- MIC [4, 14]: 1070 µg/mL (≈ 3 mM)
- MIC [4]: 3 µM/mL
- viability at 1 µM (C. glabrata 2586 biofilm): 4.54%
- viability at 2 µM (C. glabrata 2586 biofilm): 4.45%
- viability at 3 µM (C. glabrata 2586 biofilm): 3.49%
- viability at 1 µM (C. glabrata 2853 biofilm): 37.2%
- viability at 2 µM (C. glabrata 2853 biofilm): 3.06%
- viability at 3 µM (C. glabrata 2853 biofilm): 7.34%
- viability at 1 µM [5]: 32.6%
- viability at 2 µM [5]: 3.96%
- viability at 3 µM [5]: 2.14%
- Cytotoxicity level ([6]; 1 µm/mL): 85%

SMILES: CCCCCCCCCCCCCC(=O)N(C)CCC[N+](C)(C)CC(=O)[O-] [C13]
- TK (Krafft temperature) (Krafft temperature (TK)): 20.5 °C
- MIC90 (C. glabrata ATCC 90030 [1]; AAB alone): >3 µM/mL
- MIC90 ([2]; AAB alone): >3 µM/mL
- MIC90 ([3]; AAB alone): >3 µM/mL
- MIC [4, 14]: 1150 µg/mL (≈ 3 mM)
- MIC [4]: 3 µM/mL
- viability at 1 µM (C. glabrata 2586 biofilm): 4.56%
- viability at 2 µM (C. glabrata 2586 biofilm): 4.57%
- viability at 3 µM (C. glabrata 2586 biofilm): 12.9%
- viability at 1 µM (C. glabrata 2853 biofilm): 11.6%
- viability at 2 µM (C. glabrata 2853 biofilm): 4.98%
- viability at 3 µM (C. glabrata 2853 biofilm): 14.2%
- viability at 1 µM [5]: 1.96%
- viability at 2 µM [5]: 6.55%
- viability at 3 µM [5]: 2.26%
- Cytotoxicity level ([6]; 2 µM/mL): 85%

SMILES: CCCCCCCCCCCCCCCC(=O)N(C)CCC[N+](C)(C)CC(=O)[O-] [C15]
- TK (Krafft temperature) (Krafft temperature (TK)): 36.4 °C
- MIC90 (C. glabrata ATCC 90030 [1]; AAB alone): >3 µM/mL
- MIC90 ([2]; AAB alone): >3 µM/mL
- MIC90 ([3]; AAB alone): >3 µM/mL
- MIC [4, 14]: 1240 µg/mL (≈ 3 mM)
- MIC [4]: 3 µM/mL
- viability at 1 µM (C. glabrata 2586 biofilm): 6.07%
- viability at 2 µM (C. glabrata 2586 biofilm): 2.33%
- viability at 3 µM (C. glabrata 2586 biofilm): 6.23%
- viability at 1 µM (C. glabrata 2853 biofilm): 63%
- viability at 2 µM (C. glabrata 2853 biofilm): 17%
- viability at 3 µM (C. glabrata 2853 biofilm): 6.64%
- viability at 1 µM [5]: 41.9%
- viability at 2 µM [5]: 28.8%
- viability at 3 µM [5]: 41.4%
- Decrease of viability ([6]; 0.25 µm/mL): 15%
- Decrease of viability ([6]; 0.5 µm/mL): 28%

SMILES: OC(Cn1cncn1)(Cn1cncn1)c1ccc(F)cc1F [Fluconazole]
- MFC (C. glabrata ATCC 90030 [1]; Nakaseomyces glabratus, ATCC90030, read-out: MFC): 2050 µg/mL (≈ 6.69 mM)
- MIC90 (C. glabrata ATCC 90030 [1]; Nakaseomyces glabratus, ATCC90030, read-out: MIC90): 2050 µg/mL (≈ 6.69 mM)
- MFC [2, 15]: 2050 µg/mL (≈ 6.69 mM)
- MIC90 [2, 16]: 2050 µg/mL (≈ 6.69 mM)
- MFC [3, 15]: 2050 µg/mL (≈ 6.69 mM)
- MIC90 [3, 16]: 32 µg/mL (≈ 0.104 mM)
- Type of interaction with β-AE (by FICI) (C. glabrata ATCC 90030 [7]): synergistic
- FICI (C. glabrata ATCC 90030 [7]; combination with β-aescin): 0.25
- FICI (C. glabrata 2586 [8]): 1.25
- Type of interaction with β-AE (by FICI) (C. glabrata 2853 [9]): additive
- FICI (C. glabrata 2853 [9]; combination with β-aescin): 0.75
- Multiplicity factor (MF) with C9 (C. glabrata ATCC 90030 [10]; C9 3 µM, |MF| = MIC90 alone/MIC90 with AAB): 16
- MIC90 of antimycotic combined with C9 (C. glabrata ATCC 90030 [10]; [17]): 128
- Multiplicity factor (MF) with C11 (C. glabrata ATCC 90030 [10]; C11 3 µM): 64
- MIC90 of antimycotic combined with C11 (C. glabrata ATCC 90030 [10]; [18]): 32
- Multiplicity factor (MF) with C13 (C. glabrata ATCC 90030 [10]; C13 3 µM): 64
- MIC90 of antimycotic combined with C13 (C. glabrata ATCC 90030 [10]; [19]): 32
- Multiplicity factor (MF) with C15 (C. glabrata ATCC 90030 [10]; C15 3 µM): 64
- MIC90 of antimycotic combined with C15 (C. glabrata ATCC 90030 [10]; [20]): 32
- Multiplicity factor (MF) with C9 (C. glabrata 2586 [11]; C9 3 µM): 8
- Multiplicity factor (MF) with C11 (C. glabrata 2586 [11]; C11 3 µM): 64
- MIC90 of antimycotic combined with C11 (C. glabrata 2586 [11]; [18]): 32
- Multiplicity factor (MF) with C13 (C. glabrata 2586 [11]; C13 3 µM): 64
- MIC90 of antimycotic combined with C13 (C. glabrata 2586 [11]; [19]): 32
- Multiplicity factor (MF) with C15 (C. glabrata 2586 [11]; C15 3 µM): 64
- MIC90 of antimycotic combined with C15 (C. glabrata 2586 [11]; [20]): 32
- Multiplicity factor (MF) with C9 (C. glabrata 2853 [12]): 1
- Multiplicity factor (MF) with C9 (C. glabrata 2853 [12]; listed as fluconazole): did not interact
- MIC90 of antimycotic combined with C9 (C. glabrata 2853 [12]; [17]): 32
- Multiplicity factor (MF) with C11 (C. glabrata 2853 [12]; C11 3 µM): 2
- MIC90 of antimycotic combined with C11 (C. glabrata 2853 [12]; [18]): 16
- Multiplicity factor (MF) with C13 (C. glabrata 2853 [12]; C13 3 µM): 2
- MIC90 of antimycotic combined with C13 (C. glabrata 2853 [12]; [19]): 16
- Multiplicity factor (MF) with C15 (C. glabrata 2853 [12]; C15 3 µM): 16
- MIC90 of antimycotic combined with C15 (C. glabrata 2853 [12]; [20]): 2
- FICI [13]: ≤ 0.5
